Reference: ChEMBL document CHEMBL1614632, “Trend analysis of a database of intravenous pharmacokinetic parameters in humans for 670 drug compounds” (Drug Metab Dispos, 2008)
Numbered stars: 1 amine (or outer) side, 2 acyl side, 3 side chain; on linkers, the order of the positions; unused ones are H or OH. Bridge positions count the residues as written; N and C are the ends. Square brackets hold non-standard residues; d marks the D form. Peptide text beside a SMILES is read from it. * marks the point of attachment. hTyr(3S-OH,4S-OH,3'-OSO3H) = N[C@H](C(=O)O)[C@H](O)[C@@H](O)c1ccc(O)c(OS(=O)(=O)O)c1; Orn(4R-OH,5R-OH) = O=C([C@H](C[C@@H](O)[C@@H](O)N[*:3])N[*:1])[*:2]; Pro(3S-OH,4S-Me) = C[C@H]1CN[C@H](C(=O)O)[C@H]1O; X1 = CCCCCOc1ccc(-c2cc(-c3ccc(C(=O)*)cc3)no2)cc1; Gln(3R-OH) = NC(=O)C[C@@H](O)[C@H](N)C(=O)O; Hyp = O=C(O)[C@@H]1C[C@@H](O)CN1

What was measured:
clinical [1] = conditions: human, in vivo, iv, Vdss
clinical [2] = conditions: human, in vivo, iv, t1/2
clinical [3] = conditions: human, in vivo, iv
clinical [4] = conditions: human, in vivo, iv; remark: listed apart in the source
clinical [5] = conditions: human, in vivo, iv, CL

Row | Structure (SMILES) | Vd (clinical [1]) | half-life (clinical [2]) | MRT (clinical [3]) | fraction unbound (clinical [4]) | clearance (clinical [5])
1 | CCC1(c2cccc(O)c2)CCCCN(C)C1 (stereo not given) [MEPTAZINOL] | 3.3 L/kg | 1.7 h | 2 h | 0.73 | 28 mL/min/kg
2 | Nc1ccc(O)c(C(=O)O)c1 [MESALAMINE] | 0.33 L/kg | 0.61 h | 0.59 h | 0.39 | 9.3 mL/min/kg
3 | CN[C@@H](C)Cc1ccccc1 [METHAMPHETAMINE] | 4.3 L/kg | 12 h | 16 h | 0.85 | 4.4 mL/min/kg
4 | COc1cccc(OC)c1C(=O)N[C@@H]1C(=O)N2[C@@H]1SC(C)(C)[C@@H]2C(=O)O [METHICILLIN] | 0.32 L/kg | 0.64 h | 0.8 h | 0.43 | 6.6 mL/min/kg
5 | C=CCC1(C(C)C#CCC)C(=O)N=C(O)N(C)C1=O (stereo not given) [METHOHEXITAL] | 1.1 L/kg | 1.6 h | 1.5 h | 0.27 | 12 mL/min/kg
6 | COc1ccc2cc1Oc1cc3c(cc1OC)CC[N+](C)(C)[C@H]3Cc1ccc(cc1)Oc1c(OC)c(OC)cc3c1[C@@H](C2)[N+](C)(C)CC3.[I-].[I-] [METOCURINE IODIDE] | 0.4 L/kg | 5.1 h | 5.6 h | 0.65 | 1.2 mL/min/kg
7 | CC(=O)Nc1c(I)c(C(=O)O)c(I)c(N(C)C(C)=O)c1I [METRIZOIC ACID] | 0.17 L/kg | 1.3 h | 1 h | 1 | 2.7 mL/min/kg
8 | Cc1cccc(C)c1OCC(C)N (stereo not given) [MEXILETINE] | 5.9 L/kg | 9.9 h | 12 h | 0.36 | 8.3 mL/min/kg
9 | CC1(C)S[C@@H]2[C@H](NC(=O)[C@H](NC(=O)N3CCN(S(C)(=O)=O)C3=O)c3ccccc3)C(=O)N2[C@H]1C(=O)O [MEZLOCILLIN] | 0.09 L/kg | 1.2 h | 0.71 h | 0.7 | 2.1 mL/min/kg
10 | COCC(=O)O[C@]1(CCN(C)CCCc2nc3ccccc3[nH]2)CCc2cc(F)ccc2[C@@H]1C(C)C [MIBEFRADIL] | 3.1 L/kg | 13 h | 13 h | 0.005 | 4 mL/min/kg
11 | CCCCCOc1ccc(-c2cc(-c3ccc(C(=O)N[C@H]4C[C@@H](O)[C@@H](O)NC(=O)[C@@H]5[C@@H](O)[C@@H](C)CN5C(=O)[C@H]([C@H](O)CC(N)=O)NC(=O)[C@H]([C@H](O)[C@@H](O)c5ccc(O)c(OS(=O)(=O)O)c5)NC(=O)[C@@H]5C[C@@H](O)CN5C(=O)[C@H]([C@@H](C)O)NC4=O)cc3)no2)cc1 [MICAFUNGIN] (X1-[Orn(4R-OH,5R-OH)]T[Hyp][hTyr(3S-OH,4S-OH,3'-OSO3H)][Gln(3R-OH)][Pro(3S-OH,4S-Me)]; lactam 1-C) | 0.21 L/kg | 16 h | 21 h | 0.0023 | 0.17 mL/min/kg
12 | O=C1c2c(O)ccc(O)c2C(=O)c2c(NCCNCCO)ccc(NCCNCCO)c21 [MITOXANTRONE] | 12 L/kg | 53 h | 25 h | 0.25 | 7.9 mL/min/kg
13 | CO[C@@]1(NC(=O)C(C(=O)O)c2ccc(O)cc2)C(=O)N2C(C(=O)O)=C(CSc3nnnn3C)CO[C@@H]21 (stereo not given in full) [MOXALACTAM] | 0.17 L/kg | 2.9 h | 3.9 h | 0.39 | 0.72 mL/min/kg
14 | CC(C)(C)NCC(O)COc1cccc2c1CC(O)C(O)C2 (stereo not given) [NADOLOL] | 1.9 L/kg | 9.2 h | 11 h | 0.14 | 2.9 mL/min/kg
15 | CCOc1ccc2ccccc2c1C(=O)N[C@@H]1C(=O)N2[C@@H]1SC(C)(C)[C@@H]2C(=O)O [NAFCILLIN] | 0.22 L/kg | 0.7 h | 1.1 h | 0.13 | 3.3 mL/min/kg
16 | CCN[C@@H]1C[C@H](N)[C@@H](O[C@H]2OC(CN)=CC[C@H]2N)[C@H](O)[C@H]1O[C@H]1OC[C@](C)(O)[C@H](NC)[C@H]1O [NETILMICIN] | 0.073 L/kg | 3.2 h | 2.2 h | 1 | 0.55 mL/min/kg
17 | CCOC(=O)C1=C(C)NC(C)=C(C(=O)OC)C1c1cccc([N+](=O)[O-])c1 (stereo not given) [NITRENDIPINE] | 6.1 L/kg | 8.2 h | 4.1 h | 0.02 | 25 mL/min/kg
18 | COc1cc([C@@H]2c3cc4c(cc3C(OC3OC5COC(C)OC5C(O)C3N)C3COC(=O)[C@@H]32)OCO4)cc(OC)c1O (stereo not given in full) [NK-611] | 0.3 L/kg | 14 h | 17 h | 0.013 | 0.4 mL/min/kg
19 | Cc1onc(-c2ccccc2)c1C(=O)N[C@@H]1C(=O)N2[C@@H]1SC(C)(C)[C@@H]2C(=O)O [OXACILLIN] | 0.19 L/kg | 0.7 h | 0.5 h | 0.07 | 6.3 mL/min/kg
20 | CN(C)[C@@H]1C(O)=C(C(N)=O)C(=O)[C@@]2(O)C(O)=C3C(=O)c4c(O)cccc4[C@@](C)(O)[C@H]3[C@H](O)[C@@H]12 [OXYTETRACYCLINE] | 1.7 L/kg | 10 h | 12 h | 0.9 | 2 mL/min/kg
